Earlier results, collected in patent US7282218B2, “pH sensitive polymer for inhibiting transformation in drugs” (Council of Scientific and Industrial Research, priority 2003, dated 2007).

Key:
[1] = humans
[2] = amorphous vs crystalline

CO/N=C(\C(=O)N[C@@H]1C(=O)N2C(C(=O)OC(C)OC(C)=O)=C(COC(N)=O)CS[C@H]12)c1ccco1 (some centres unmarked) [Cefuroxime axetil]
bioavailability [1]: 32-50%

CO[C@@H]1[C@@H](OC(N)=O)[C@@H](O)[C@H](Oc2ccc3c(O)c(NC(=O)c4ccc(O)c(CC=C(C)C)c4)c(=O)oc3c2C)OC1(C)C [novobiocin]
solubility of amorphous form relative to the crystalline form [2]: 10 times
